According to US20210368825A1, “FEED ADDITIVE FOR DAIRY CATTLE COMPRISING N-ACETYL-L-TRYPTOPHAN AS ACTIVE INGREDIENT” (CJ CHEILJEDANG CORPORATION, priority 2018, published 2021):
“Also recorded” adds a separate entry of the source.

What was measured:
[1] = test system: milking cows after calving; experiment: Analysis of milk quality of dairy cattle after calving according to NALT feeding (milk scanner FT1); type: in vivo, Holstein Friesian cows; set-up: Aceton / Aceton, total AVG / BHB / BHB, total AVG / Cas.B / Cas.B, total AVG / Mono FA / Mono FA, total AVG / Saturated FA / Saturated FA, total AVG / Total FA / Total FA, total AVG: unit not given here
Source text: (§1) From among Holstein Friesian cows in the late stage of gestation corresponding to 60 days before calving, 8 cows were selected in consideration of calving time (expected calving date±15 days), the number of calving (calving number), and the like, and 4 cows were assigned to each of a control (untreated) and a treated group.
(§2) In the present disclosure, as a basal diet fed during a dry period and a milking period, total mixed ration (TMR), roughage, and concentrates were provided in accordance with NRC (2001) nutrition requirements for dry cows. In the case of the treated group, evaluation was performed by supplementing N-acetyl-L-tryptophan (NALT) to the basal diet. Newborn calves were fed with colostrum for 3 days and then fed with milk obtained during a milking process for 8 weeks.
(§3) Evaluation of feed feeding before calving by feeding N-acetyl-L-tryptophan was performed for 60±8 days (error caused by difference in expected calving dates). The control was fed with the basal diet, and the treated group was fed with the basal diet supplemented with 15 g of NALT.
Raw milk was pooled at 3 a.m. and 3 p.m. every 14 days after calving when lactation was initiated, and chemical compositions contained in milk, i.e., milk fat, milk protein, lactose, solid-not-fat (SNF), somatic cells, milk urea nitrogen (MUN), acetone, beta-hydroxybutyrate (BHB), casein-beta, mono- and poly-unsaturated fatty acids, saturated fatty acids, and total fatty acid, were analyzed using a milk scanner FT1 (Foss Alle 1 DK-3400 Hilleroed, Denmark).
In addition, in order to identify changes in milk protein yield and milk fat yield, changes were identified on a weekly basis.

[2] = test system: dairy cattle after calving; experiment: Change in hematological properties of dairy cattle after calving according to NALT feeding; type: in vivo, Holstein Friesian cows
Source text: as §1, §2, §3
(§4) Blood was collected from dairy cattle and calves during 6 weeks of the dry period and immediately after calving via the jugular vein before feeding a morning feed every 2 weeks for 8 weeks. The collected blood was aliquoted into a serum tube (BD Vacutainer, Plymouth, UK) and a heparin tube (Becton-Dickinson, Belliver Industrial Estate, Plymouth, PL6 7BP, UK) and centrifuged (3,500 rpm, 15 min, 20° C.) to separate plasma.
Blood samples for analysis of changes in hematological properties such as white blood cells (WBC), lymphocytes, monocytes, granulocytes, mean corpuscular volume, mean corpuscular hemoglobin, and platelets were aliquoted into an ethylenediaminetetraacetic acid (EDTA)-treated vacutainer (Becton-Dickinson, Franklin Lakes, N.J., USA) and analyzed using a VetScan HM2 Hematology System (ABAXIS, Calif., USA).

[3] = test system: calves born from dairy cattle; experiment: Metabolic change of calves born from dairy cattle according to NALT feeding; type: in vivo, Holstein Friesian cows (calves)
Source text: as §1, §2, §3, §4
Samples for analysis of metabolic changes such as albumin, glutamic-oxalacetic transaminase (GOT), blood urea nitrogen (BUN), triglycerides (TG), cholesterol (CHO), glucose (GLU), and non-esterified fatty acid (NEFA) were aliquoted into a 1.5 mL tube (Eppendorf AG, Hamburg, Germany) in an amount of 500 μL each and stored in a deep freezer at −80° C.

[4] = average over 8 weeks after calving
[5] = milk, average over 8 weeks after calving

- effect on hematological properties of dairy cattle compared with control [2]: did not significantly affect
- Monocyte ([2]; 0 wk, reference 0-0.84): 0.92 K/uL
- Granulocyte ([2]; 0 wk, reference 0.6-6.7): 6.41 K/uL
- Lymphocyte ([2]; 0 wk, reference 2.5-7.5): 7.99 K/uL
- WBC ([2]; 0 wk, reference 4-12): 15.32 K/uL
- MCH ([2]; 0 wk, reference 11-17): 16.80 pg
- MCV ([2]; 0 wk, reference 40-60): 47.00 fL
- Platelet ([2]; 0 wk, reference 100-800): 348.75 K/ul
- Monocyte, total AVG ([2]; average 0 to 8 weeks, reference 0-0.84): 0.91 K/uL
- Granulocyte, total AVG ([2]; average 0 to 8 weeks, reference 0.6-6.7): 5.18 K/uL
- Lymphocyte, total AVG ([2]; average 0 to 8 weeks, reference 2.5-7.5): 7.86 K/uL
- WBC, total AVG ([2]; average 0 to 8 weeks, reference 4-12): 13.95 K/uL
- MCH, total AVG ([2]; average 0 to 8 weeks, reference 11-17): 16.60 pg
- MCV, total AVG ([2]; average 0 to 8 weeks, reference 40-60): 46.55 fL
- Platelet, total AVG ([2]; average 0 to 8 weeks, reference 100-800): 480.51 K/ul
Compound: CC(=O)N[C@@H](Cc1c[nH]c2ccccc12)C(=O)O [NALT, N-acetyl-L-tryptophan]
- Lactose ([1]; 0 wk): 3.48%
- Milk fat ([1]; 0 wk): 6.25%
- Milk protein ([1]; 0 wk): 12.81%
- Milk urea nitrogen ([1]; 0 wk): 24.43 mg/dL
- Solid-not Fat ([1]; 0 wk): 17.17%
- Somatic cells ([1]; 0 wk): 4867.95 ×10^3
- Lactose, total AVG [1, 4]: 4.38%
- Milk fat, total AVG [1, 4]: 6.31%
- Milk protein, total AVG [1, 4]: 4.88%
- Milk urea nitrogen, total AVG [1, 4]: 16.49 mg/dL
- Solid-not Fat, total AVG [1, 4]: 9.95%
- Somatic cells, total AVG [1, 4]: 1086.15 ×10^3
- milk fat yield of colostrum compared with control ([1]; immediately after calving): lower
- milk protein yield of colostrum compared with control ([1]; immediately after calving): higher
- BHB ([1]; milk beta-hydroxybutyrate, 0 wk): 0.00
- BHB, total AVG ([1]; milk beta-hydroxybutyrate, average over 8 weeks after calving): 0.04
- Cas.B ([1]; milk casein-beta, 0 wk): 9.76
- Cas.B, total AVG ([1]; milk casein-beta, average over 8 weeks after calving): 3.71
- Mono FA ([1]; milk mono-unsaturated fatty acids, 0 wk): 1.35
- Mono FA, total AVG ([1]; milk mono-unsaturated fatty acids, average over 8 weeks after calving): 1.70
- Poly FA ([1]; milk poly-unsaturated fatty acids, 0 wk): 0.34
- Poly FA, total AVG ([1]; milk poly-unsaturated fatty acids, average over 8 weeks after calving): 0.36
- Aceton ([1]; milk, 0 wk): 0.00
- Saturated FA ([1]; milk, 0 wk): 4.95
- Total FA ([1]; milk, 0 wk): 1.38
- Aceton, total AVG [1, 5]: 0.07
- Saturated FA, total AVG [1, 5]: 4.20
- Total FA, total AVG [1, 5]: 2.16
- milk fat yield as the experiment progressed ([1]; weekly basis after calving, control showed a tendency to decrease): tendency to be maintained constantly
- glucose (Glu) index of newborn calves compared with control ([3]; calves of the NALT-treated group, 8 weeks after birth): statistically significant difference; also recorded: decreasing a blood glucose level
- Albumin ([3]; calves, 0 wk): 2.50 g/dL
- BUN ([3]; calves, 0 wk): 10.00 mg/dL
- CHO ([3]; calves, 0 wk): 33.00 mg/dL
- GLU ([3]; calves, 0 wk): 54.75 mg/dL
- GOT ([3]; calves, 0 wk): 47.25 U/L
- TG ([3]; calves, 0 wk): 14.50 mg/dL
- Albumin, total AVG ([3]; calves, average 0 to 8 weeks): 3.36 g/dL
- BUN, total AVG ([3]; calves, average 0 to 8 weeks): 11.30 mg/dL
- CHO, total AVG ([3]; calves, average 0 to 8 weeks): 109.30 mg/dL
- GOT, total AVG ([3]; calves, average 0 to 8 weeks): 62.55 U/L
- TG, total AVG ([3]; calves, average 0 to 8 weeks): 34.40 mg/dL
- GLU, total AVG ([3]; calves, average 0 to 8 weeks, P 0.015): 78.95 mg/dL
